Test results as given in PMC9929129, “Towards Translation of PqsR Inverse Agonists: From In Vitro Efficacy Optimization to In Vivo Proof‐of‐Principle” (Advanced Science, 2023).
Read-outs that look alike come from different tables or passages of the source.

How the values were obtained:
[1] = test system: Pseudomonas aeruginosa strain RP73; test: Alkylquinolone quantification, strain RP73; type: cell-based; conditions: RP73, 17 h
Procedure: re-extracted with 0.2 M HCl and quantified photometrically (520 nm). IC50 values were determined from dose-response curves of compounds using at least six different concentrations and fitting with non-linear regression analysis (OriginPro 2017–2020, Originlab Corporation).
1.2.3 Alkylquinolone quantification
Inhibition of alkylquinolone (AQ) signal molecule biosynthesis of compound 24 was analyzed via LC-ESI-MS/MS. Extracellular concentrations of the AQs PQS (2-heptyl-3-hydroxy-4-quinolone), HHQ (2-heptyl-4-quinolone), HQNO (N-oxo-2-heptyl-4-Hydroxyquinoline), 2-AA (2-aminoacetophenone) were measured from supernatants of cultures incubated with or without compound for 17 h. 5,6,7,8-Tetradeutero-2-heptyl-4(1H)-quinolone (HHQ-d4) was added as internal standard before sample preparation. IC50 values were calculated according to the procedure of the pyocyanin assay (see above). LC-ESI-MS/MS conditions were as follows: Dionex Ultimate 3000 HPLC instrument parameters: Zorbax Eclipse XDB 80 Å C18 5 µm 4.6 x 50 mm (Agilent, Santa Clara, CA, USA); eluent A – H2O with 0.1% trifluoroacetic acid (TFA), 0.1% pentafluoropropionic acid (PFPA), 0.1% heptafluorobutyric acid (HFBA); eluent B – acetonitrile with 0.1% TFA, 0.1% PFPA, 0.1% HFBA; isocratic 50% A; flow – 0.7 mL/min. TSQ Quantum Access Max (Thermo Fisher Scientific, Waltham, MA, USA) instrument parameters: Spray voltage 3500 V, vaporizer temperature 370 °C, sheath gas pressure 35 psi, aux gas pressure 30 psi, capillary temperature 270 °C, collision pressure 1.5 mTorr, positive ionization mode. For AQ analyte reaction monitoring parameters please see Table S1.
Table S1. LC-ESI-MS/MS reaction monitoring parameters of AQ analytes in positive ionization mode. precursor product ion collision tube lens retention ion m/z m/z energy (V) offset (V) time (min)
1.2.4 Biofilm-formation assay […]
(Innvotech, Edmonton, CA). An overnight culture of PA14 was centrifuged (10 min, 5000 x g). The supernatant including extracellular polymers was removed and the pellet washed with 10 mL of LB medium. Centrifugation was repeated, the supernatant discarded, and the pellet resuspended in 5 mL of LB. OD was adjusted to 0.2. The bacteria were further diluted in LB medium, followed by addition of the target compound or DMSO control to give OD 0.1 and 1% DMSO. 150 µL were added to each well of the 96-well plate. The outer wells were used as blanks containing 150 µL of 1% DMSO in LB. Six replicates per sample were distributed evenly across the plate, with every row containing one replicate of each sample. The well plate was covered with the peg lid. One layer of parafilm was wrapped around the biofilm inoculator. The inoculator was incubated at 37 °C, static for 24 h with a beaker of H2O ensuring humidity. […]

[2] = Metabolic stability in mouse liver S9 fractions; type: in vitro ADME; conditions: liver S9 fraction, read-out: Mouse liver S9 t½
[3] = test system: 14 PA clinical isolates from bronchiectasis patients; test: Pyocyanin inhibition assay in clinical isolates; type: cell-based, Pseudomonas aeruginosa; conditions: 2 × 10^−6 M 24, LB-medium, 16 h
Procedure: Pyoverdine determinations. Precultures of each strain were grown 20 h at 37°C in M9 minimal […]
with 30 mM succinate, 2 mM MgSO , 10 μM FeSO and 2.5 mL L−1 of trace elements solution.[10] Next, […]
5 µl of each culture were transferred to 10 ml of M9 minimal medium devoid of iron and trace element solution, and cultured again for 24 h at 37°C with constant shaking. After incubation, the OD600 of the cultures was determined: The cell contained in 1 mL medium were harvested by centrifugation (5 min; 14,000 rpm) and the absorbance at 405 nm (A405nm) of 0.8 ml of the supernatant was determined spectrophotometrically and normalized to the OD600 of the culture measured before (i.e. A405nm, OD600-1). PA14 and PAO1 were also assayed as controls. The experiments were carried out at least in triplicates.
Pyocyanin inhibition assay. The inhibition of pyocyanin production in the clinical isolates (CIs) and the type strains (PA14 and PAO1) was tested by the treatment of LB-grown cultures incubated for 16 h at 37°C with constant shaking with 2 µM of 24/DMSO or with 2 µl of DMSO as control. Pyocyanin extraction and quantification were carried out as described in section 1.2.2. Pyocyanin concentrations (μg mL −1) were calculated by multiplication of its absorbance at 520 nm with a […]
correction factor of 17.072, and normalized to the OD600 of the culture.

CC(C)Oc1ccc(-c2ncc(CNc3ccnc(C(F)(F)F)c3)cn2)cc1Cl [Compound 24]
IC50 ([1]; read-out: IC50 RP73, 2‐AA biosynthesis): 213 nM
IC50 ([1]; read-out: IC50 RP73, HHQ biosynthesis): 453 nM
IC50 ([1]; read-out: IC50 RP73, HQNO biosynthesis): 230 nM
IC50 ([1]; read-out: IC50 RP73, PQS biosynthesis): 160 nM
half-life [2]: 50 min
Production of pyocyanin by clinical isolates [3]: dramatic reduction
